Patent publication US9428456B2, “1-[m-carboxamido(hetero)aryl-methyl]-heterocyclyl-carboxamide derivatives” (Actelion Pharmaceuticals Ltd., priority 2012, dated 2016)

Molecular target: CXCR7 (Homo sapiens (Human), UniProt P25106)
Test: PathHunter CHO-K1 CXCR7 b-arrestin assay (agonistic activity)
Format: cell-based
Conditions: PathHunter CHO-K1 CXCR7 b-arrestin cell line
In short: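 CHO-K1 cells co-expressing ProLink-tagged CXCR7 and EA-fused β-arrestin 2 (enzyme fragment complementation); compounds added in HBSS/20 mM HEPES/0.2% BSA after 3–4 h in OPTIMEM, 90 min at 37 °C. Chemiluminescent β-gal signal read after 1 h detection at room temperature; EC50 reported as geometric mean of several measurements.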

CXCR7, sequence (P25106 whole entry): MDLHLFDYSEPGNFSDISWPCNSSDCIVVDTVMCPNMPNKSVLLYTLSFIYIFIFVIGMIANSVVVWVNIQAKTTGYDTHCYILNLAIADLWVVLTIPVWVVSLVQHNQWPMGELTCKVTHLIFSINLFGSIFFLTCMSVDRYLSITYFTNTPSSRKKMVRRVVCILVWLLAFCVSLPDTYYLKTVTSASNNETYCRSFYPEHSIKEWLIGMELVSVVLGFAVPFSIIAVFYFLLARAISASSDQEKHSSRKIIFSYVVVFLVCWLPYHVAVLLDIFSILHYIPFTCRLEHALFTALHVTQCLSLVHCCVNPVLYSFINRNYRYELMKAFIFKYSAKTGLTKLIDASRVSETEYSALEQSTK
CXCR7, sequence (P32121 whole entry partner): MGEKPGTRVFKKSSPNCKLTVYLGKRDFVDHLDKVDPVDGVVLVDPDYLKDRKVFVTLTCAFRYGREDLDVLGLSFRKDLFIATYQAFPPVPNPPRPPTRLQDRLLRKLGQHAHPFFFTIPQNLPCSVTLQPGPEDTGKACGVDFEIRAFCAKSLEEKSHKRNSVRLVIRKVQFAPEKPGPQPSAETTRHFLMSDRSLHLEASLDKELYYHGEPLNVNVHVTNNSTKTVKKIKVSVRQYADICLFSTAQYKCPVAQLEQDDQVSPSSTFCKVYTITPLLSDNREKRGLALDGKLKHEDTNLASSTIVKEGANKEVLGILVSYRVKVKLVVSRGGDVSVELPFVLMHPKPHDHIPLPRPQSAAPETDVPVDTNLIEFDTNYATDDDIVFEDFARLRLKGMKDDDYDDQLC

SMILES	EC50
O=C(Cc1ccccc1)Nc1cccc(CN2CCC(C(=O)NC3CCCCC3)CC2)c1 [Example 1.011]	7 nM
O=C(Nc1cccc(CN2CCC(C(=O)NC3CCCCC3)CC2)c1)c1ccc(Cl)nc1Cl [Example 1.091]	12 nM
O=C(Nc1cccc(CN2CCC(C(=O)NC3CCCCC3)CC2)c1)c1c(F)cccc1F [Example 1.127]	36 nM
Cc1ccc(C(=O)Nc2cccc(CN3CCC(C(=O)NC4CCCCC4)CC3)c2)c(Cl)n1 [Example 1.070]	40 nM
CC(C)(C)NC(=O)C1CCN(Cc2cccc(NC(=O)c3cccc(C(F)(F)F)c3)c2)CC1 [Example 1.237]	4 nM
O=C(Nc1cccc(CN2CCC(C(=O)NC3CCCCC3)CC2)c1)c1ncccc1Br [Example 1.085]	1 nM
Cc1cncc(C(=O)Nc2cccc(CN3CCC(C(=O)NC4CCCCC4)CC3)c2)c1 [Example 6.001, N-(3-((4-(cyclohexylcarbamoyl)piperidine-1-yl)d2methyl)phenyl)-5-methylnicotinamide]	5 nM
CC(C)C(C(=O)Nc1cccc(CN2CCC(C(=O)NC3CCCCC3)CC2)c1)c1ccccc1 (racemic) [Example 1.036]	35 nM
O=C(Nc1cccc(CN2CCC(C(=O)NC3CCCCC3)CC2)c1)c1n[nH]c2ccccc12 [Example 1.008]	35 nM
CC(c1cccc(NC(=O)c2ccc(C#N)cc2)c1)N1CCC(C(=O)NC2CCCCC2)CC1 (racemic) [Example 1.178]	64 nM
O=C(Nc1cccc(CN2CCC(C(=O)NC3CCCCC3)CC2)c1)c1cc2cccnc2[nH]1 [Example 1.146]	8 nM
Cc1cncc(C(=O)Nc2ccc(C)c(CN3CCC(C(=O)NC(C)(C)C)CC3)c2)c1 [Example 1.299]	3 nM
Cc1ccccc1C(=O)Nc1cccc(CN2CCC(C(=O)NC3CCCCC3)CC2)c1 [Example 1.099]	19 nM
CC(C)(C)NC(=O)C1CCN(Cc2cccc(NC(=O)CC3CCOCC3)c2)CC1 [Example 1.255]	137 nM
O=C(Nc1cccc(CN2CCC(C(=O)NC3CC3)CC2)c1)c1cncc(F)c1 [Example 1.204]	47 nM
O=C(Cc1ccccc1Cl)Nc1cccc(CN2CCC(C(=O)NC3CCCCC3)CC2)c1 [Example 1.025]	3 nM
O=C(Nc1cccc(CN2CCC(C(=O)NC3CCCC3)CC2)c1)c1cnc2ccccc2c1 [Example 1.211]	3 nM
Cc1cncc(C(=O)Nc2cccc(CN3CC[C@H](C(=O)NC4CCCCC4)C[C@@H]3C)c2)c1 (racemic) [Example 2.104, rac-N-[3-((2S*,4S*)-4-Cyclohexylcarbamoyl-2-methyl-piperidin-1-ylmethyl)-phenyl]-5-methyl-nicotinamide]	4 nM
Cc1ccc(CN2CCC(C(=O)NC(C)(C)C)CC2)cc1NC(=O)c1ccc(F)cc1 [Example 1.303]	3 nM
O=C(Nc1cccc(CN2CCC(C(=O)NC3CCCCC3)CC2)c1)c1cc(Cl)ccc1Cl [Example 1.137]	8 nM
CN(C)c1ccc(C(=O)Nc2cccc(CN3CCC(C(=O)NC4CCCCC4)CC3)c2)cc1 [Example 1.096]	40 nM
O=C(Nc1cccc(CN2CCC(C(=O)NC3CCCCC3)CC2)c1)c1ccc(C(F)(F)C(F)(F)F)cc1 [Example 1.153]	10 nM
COc1cc(CN2CCC(C(=O)NC(C)(C)C)CC2)cc(NC(=O)c2cccc(C(F)(F)F)n2)c1 [Example 1.325]	262 nM
Cc1cncc(C(=O)Nc2cccc(CN3CCCC(C(=O)NC4CCCCC4)CC3)c2)c1 (racemic) [Example 1.291]	134 nM
Cc1cc(CN2CCC(C(=O)NC(C)(C)C)CC2)cc(NC(=O)c2ccc(F)cc2)c1 [Example 1.318]	13 nM
Cc1cncc(C(=O)Nc2cccc(CN3CCC(C(=O)NC(C)(C)C)C3)c2)c1 (racemic) [Example 2.096, rac-N-[3-(3-tert-Butylcarbamoyl-pyrrolidin-1-ylmethyl)-phenyl]-5-methyl-nicotinamide]	28 nM

SMILES	EC50
Cc1c(Cl)cccc1C(=O)Nc1cccc(CN2CCC(C(=O)NC3CCCCC3)CC2)c1 [Example 1.120]	35 nM
O=C(CCc1nc2ccccc2[nH]1)Nc1cccc(CN2CCC(C(=O)NC3CCCCC3)CC2)c1 [Example 1.045]	2490 nM
CC(c1cccc(NC(=O)c2cnc3[nH]ccc3c2)c1)N1CCC(C(=O)NC2CCCCC2)CC1 (racemic) [Example 1.190]	134 nM
Cc1ccncc1C(=O)Nc1cccc(CN2CCC(C(=O)NC3CCCCC3)CC2)c1 [Example 1.063]	237 nM
O=C(Nc1cccc(CN2CCC(C(=O)NC3CCCCC3)CC2)c1)c1ccc(Cl)cc1F [Example 1.130]	7 nM
CC(C)(C)NC(=O)C1CCN(Cc2cccc(NC(=O)c3ccc4ncsc4c3)c2)CC1 [Example 1.353]	3 nM
O=C(Nc1cccc(CN2CCC(C(=O)NC3CCCCC3)CC2)c1)c1ccc(F)cc1 [Example 1.156]	2 nM
CCN(CC)c1ccc(C(=O)Nc2cccc(CN3CCC(C(=O)NC4CCCCC4)CC3)c2)cn1 [Example 1.071]	182 nM
CC(C)(C)NC(=O)C1CCN(Cc2cc(Br)cc(NC(=O)c3cccc(C(F)(F)F)n3)c2)CC1 [Example 1.279]	420 nM
O=C(Nc1cccc(CN2CCC(C(=O)NC3CCCC3)CC2)c1)c1cccc(C(F)(F)F)n1 [Example 1.208]	0.6 nM
CC(C)CN(C)C(=O)C1CCN(Cc2cccc(NC(=O)c3cccc(C(F)(F)F)n3)c2)CC1 [Example 1.274]	9 nM
O=C(CC1Cc2ccccc2C1)Nc1cccc(CN2CCC(C(=O)NC3CCCCC3)CC2)c1 [Example 1.052]	36 nM
O=C(Nc1cccc(CN2CCC(C(=O)NC3CCCCC3)CC2)c1)c1cccc[n+]1[O-] [Example 1.080]	14 nM
Cc1ccc(C)c(C(=O)Nc2cccc(CN3CCC(C(=O)NC4CCCCC4)CC3)c2)c1 [Example 1.110]	8 nM
CCC(c1cccc(NC(=O)c2cncc(C)c2)c1)N1CCC(C(=O)NC2CCCCC2)CC1 (racemic) [Example 1.307]	350 nM
Cn1cc(CC(=O)Nc2cccc(CN3CCC(C(=O)NC4CCCCC4)CC3)c2)c2ccccc21 [Example 1.030]	18 nM
CC(C)(C)NC(=O)C1CCN(Cc2cccc(NC(=O)c3cncc(C(F)(F)F)c3)c2)CC1 [Example 1.230]	1 nM
O=C(Nc1cccc(CN2CCC(C(=O)NC3CCCCC3)CC2)c1)c1ccncc1 [Example 1.053]	40 nM
CC(C)(C)NC(=O)C1CCN(Cc2cccc(NC(=O)Cc3c(F)ccc(F)c3Cl)c2)CC1 [Example 1.254]	2 nM
CC(C)(C)NC(=O)C1CCN(Cc2cccc(NC(=O)C3CCc4ccccc43)c2)CC1 (racemic) [Example 1.267]	2 nM
CCc1ccc(CN2CCC(C(=O)NC(C)(C)C)CC2)cc1NC(=O)c1cncc(C)c1 [Example 1.327]	28 nM
Cc1ccc(C(=O)Nc2cccc(CN3CCC(C(=O)NC4CCCCC4)CC3)c2)cc1 [Example 1.101]	4 nM
O=C(Nc1cccc(CN2CCC(C(=O)NC3CCCCC3)CC2)c1)c1cccc(C(F)(F)F)c1 [Example 1.104]	5 nM
CC(C)(C)NC(=O)C1CCN(Cc2cccc(NC(=O)c3cnc4cc(Cl)ccc4c3)c2)CC1 [Example 1.236]	5 nM
CC(C)(C)NC(=O)C1CCN(Cc2cccc(NC(=O)c3cccc(S(C)(=O)=O)c3)c2)CC1 [Example 1.352]	71 nM
O=C(NC1CCCCC1)C1CCN(Cc2cccc(NC(=O)C3CC3c3ccccc3)c2)CC1 (racemic) [Example 1.029]	5 nM
